Laboratory results: patent US20070264355A1, “BINARY COMPOSITIONS AND METHODS FOR STERILIZATION” (Binary, LLC, priority 2005, published 2007)
Where “and” joins values, the source holds several entries; their conditions need not be identical. Identical values can stand only once.

Test system: Staphylococcus aureus (ATCC 6538)
Test: Microbicidal activity against Staphylococcus aureus (suspension test, surviving CFU)
Type: cell-based
Protocol: Bacterial suspensions, specifically Staphylococcus aureus (ATCC 6538) in this example, were prepared by the shake flask method to achieve late log to early stationary phase growth. Bacteria were grown 24 hours in trypticase soy broth (TSB) at 35° C. The cultures were centrifuged at 4,000 rpm for 10 minutes and the supernatants removed. The pellet was collected and washed twice with sterile 0.9% normal saline. The washed microorganisms were suspended and diluted with normal saline to a 3 McFarland standard, i.e., approximately 10^9 bacteria colony forming units (CFU) per ml. Actual colony counts are confirmed by serial dilutions (10^−1 to 10^−5 or 10^−6) plated on trypticase soy agar (TSA) and incubated overnight at 35° C. One hundred microliters of organisms from a stock of 10^7 CFU/ml were used to obtain an approximate final working target inoculum of 10^6 CFU. The microbicidal test is conducted in a vial containing 1.4 ml of final reaction mixture after neutralization.
Each solution was used alone for the individual controls. Organism suspensions were used to achieve a final target concentration of 2-3×10^6 CFU per ml. For the binary system treatments, sodium hypochlorite solution and hydrogen peroxide solution, non-acidified or acidified, were sequentially added to the microorganisms. Acidified hydrogen peroxide solution was obtained by the addition of 1.0% v/v of 0.001 N hydrochloride solution. After each addition, the resulting mixture was allowed to remain in contact with the organisms for a set amount of time at room temperature (about 22° C.), as listed in the Tables 1 and 2. At the end of the treatment time, the mixtures were neutralized with 200 to 500 microliters of thiosulfate solution (2.4%) to quench the activity of sodium hypochlorite and then treated with 100 to 200 microliters of a 1% catalase solution, containing a minimum of 100 units/ul, to quench the hydrogen peroxide activity. If needed, an appropriate volume of sterile saline was added to bring the final volume of reaction mixture to 1.4 ml after neutralization. Serial dilution plate counts were performed from the contents of each vial in sterile saline and inoculated onto TSA for quantitative culture. Plates were then incubated at 37° C. and counts taken at 24 hours.
After an additional 30 minutes, the binary system mixture was then neutralized using 2.4% thiosulfate followed by 1% catalase as described in the Methods Section.

[1] = NaOCl 0.02 mM 15 min, then saline 30 min, inoculum 2530000 CFU
[2] = NaOCl 0.02 mM 15 min, inoculum 2500000 CFU
[3] = NaOCl 0.02 mM 15 min, inoculum 2530000 CFU
[4] = NaOCl 0.03 mM 15 min, then saline 30 min, inoculum 2530000 CFU
[5] = NaOCl 0.03 mM 15 min, inoculum 2500000 CFU
[6] = NaOCl 0.03 mM 15 min, inoculum 2530000 CFU
[7] = NaOCl 0.04 mM 15 min, then saline 30 min, inoculum 2530000 CFU
[8] = NaOCl 0.04 mM 15 min, inoculum 2500000 CFU
[9] = NaOCl 0.04 mM 15 min, inoculum 2530000 CFU
[10] = NaOCl 0.05 mM 15 min, then saline 30 min, inoculum 2530000 CFU
[11] = NaOCl 0.05 mM 15 min, inoculum 2530000 CFU
[12] = NaOCl 0.06 mM 15 min, then saline 30 min, inoculum 2530000 CFU
[13] = NaOCl 0.06 mM 15 min, inoculum 2530000 CFU
[14] = NaOCl 0.07 mM 5 min, inoculum 1600000 CFU
[15] = NaOCl 0.07 mM 15 min, then saline 30 min, inoculum 2530000 CFU
[16] = NaOCl 0.07 mM 15 min, inoculum 1600000 CFU
[17] = NaOCl 0.07 mM 15 min, inoculum 2530000 CFU
[18] = NaOCl 0.07 mM 30 min, inoculum 1600000 CFU
[19] = NaOCl 0.71 mM 5 min, inoculum 1600000 CFU
[20] = NaOCl 0.71 mM 15 min, inoculum 1600000 CFU
[21] = NaOCl 0.71 mM 30 min, inoculum 1600000 CFU
[22] = NaOCl 7.05 mM 5 min, inoculum 1600000 CFU
[23] = NaOCl 7.05 mM 15 min, inoculum 1600000 CFU
[24] = NaOCl 7.05 mM 30 min, inoculum 1600000 CFU
[25] = NaOCl 70.53 mM 5 min, inoculum 1600000 CFU
[26] = NaOCl 70.53 mM 15 min, inoculum 1600000 CFU
[27] = NaOCl 70.53 mM 30 min, inoculum 1600000 CFU
[28] = NaOCl 705.27 mM 5 min, inoculum 1600000 CFU
[29] = NaOCl 705.27 mM 15 min, inoculum 1600000 CFU
[30] = NaOCl 705.27 mM 30 min, inoculum 1600000 CFU

[Na+].[O-]Cl [NaOCl, sodium hypochlorite]
Log 10 (CFU + 1) Survivors [1]: 3.0
Log Reduction [1]: 3.4
Total Viability (CFU) [1]: 1092 CFU
Log 10 (CFU + 1) Survivors [2]: 6.3
Log Reduction [2]: 0.1 and 0.12
Total Viability (CFU) [2]: 1890000 CFU
Log 10 (CFU + 1) Survivors [3]: 3.1
Log Reduction [3]: 3.3 and 3.29
Total Viability (CFU) [3]: 1288 CFU
Log 10 (CFU + 1) Survivors [4]: 2.4
Log Reduction [4]: 4.0
Total Viability (CFU) [4]: 260 CFU
Log 10 (CFU + 1) Survivors [5]: 4.9
Log Reduction [5]: 1.5 and 1.53
Total Viability (CFU) [5]: 74200 CFU
Log 10 (CFU + 1) Survivors [6]: 2.9
Log Reduction [6]: 3.5 and 3.51
Total Viability (CFU) [6]: 784 CFU
Log 10 (CFU + 1) Survivors [7]: 1.3
Log Reduction [7]: 5.1
Total Viability (CFU) [7]: 18 CFU
Log 10 (CFU + 1) Survivors [8]: 2.8
Log Reduction [8]: 3.6 and 3.61
Total Viability (CFU) [8]: 616 CFU
Log 10 (CFU + 1) Survivors [9]: 2.2
Log Reduction [9]: 4.2 and 4.18
Total Viability (CFU) [9]: 167 CFU
Log 10 (CFU + 1) Survivors [10]: 1.1
Log Reduction [10]: 5.3
Total Viability (CFU) [10]: 13 CFU
Log 10 (CFU + 1) Survivors [11]: 1.3
Log Reduction [11]: 5.1 and 5.15
Total Viability (CFU) [11]: 17 CFU
Log 10 (CFU + 1) Survivors [12]: 0.9
Log Reduction [12]: 5.5
Total Viability (CFU) [12]: 7 CFU
Log 10 (CFU + 1) Survivors [13]: 0.0
Log Reduction [13]: 6.4
Total Viability (CFU) [13]: 0 CFU
Log 10 (CFU + 1) Survivors [14]: 0.7
Log Reduction [14]: 5.5
Total Viability (CFU) [14]: 4 CFU
Total Viability (CFU) (NaOCl 0.07 mM 5 min, inoculum 1600000 CFU, listed as sodium hypochlorite): four
Log 10 (CFU + 1) Survivors [15]: 0.0
Log Reduction [15]: 6.4
Total Viability (CFU) [15]: 0 CFU
Log 10 (CFU + 1) Survivors [16]: 0.9
Log Reduction [16]: 5.3
Total Viability (CFU) [16]: 7 CFU
Total Viability (CFU) (NaOCl 0.07 mM 15 min, inoculum 1600000 CFU, listed as sodium hypochlorite): seven
Log 10 (CFU + 1) Survivors [17]: 0.0
Log Reduction [17]: 6.4
Total Viability (CFU) [17]: 0 CFU
Log 10 (CFU + 1) Survivors [18]: 0.0
Log Reduction [18]: 6.2
Total Viability (CFU) [18]: 0 CFU
Log 10 (CFU + 1) Survivors [19]: 0.0
Log Reduction [19]: 6.2
Total Viability (CFU) [19]: 0 CFU
Log 10 (CFU + 1) Survivors [20]: 0.0
Log Reduction [20]: 6.2
Total Viability (CFU) [20]: 0 CFU
Log 10 (CFU + 1) Survivors [21]: 0.0
Log Reduction [21]: 6.2
Total Viability (CFU) [21]: 0 CFU
Log 10 (CFU + 1) Survivors [22]: 0.0
Log Reduction [22]: 6.2
Total Viability (CFU) [22]: 0 CFU
Log 10 (CFU + 1) Survivors [23]: 0.0
Log Reduction [23]: 6.2
Total Viability (CFU) [23]: 0 CFU
Log 10 (CFU + 1) Survivors [24]: 0.0
Log Reduction [24]: 6.2
Total Viability (CFU) [24]: 0 CFU
Log 10 (CFU + 1) Survivors [25]: 0.0
Log Reduction [25]: 6.2
Total Viability (CFU) [25]: 0 CFU
Log 10 (CFU + 1) Survivors [26]: 0.0
Log Reduction [26]: 6.2
Total Viability (CFU) [26]: 0 CFU
Log 10 (CFU + 1) Survivors [27]: 0.0
Log Reduction [27]: 6.2
Total Viability (CFU) [27]: 0 CFU
Log 10 (CFU + 1) Survivors [28]: 0.0
Log Reduction [28]: 6.2
Total Viability (CFU) [28]: 0 CFU
Log 10 (CFU + 1) Survivors [29]: 0.0
Log Reduction [29]: 6.2
Total Viability (CFU) [29]: 0 CFU
Log 10 (CFU + 1) Survivors [30]: 0.0
Log Reduction [30]: 6.2
Total Viability (CFU) [30]: 0 CFU
